The text below walks through data of ChEMBL document CHEMBL4818987, “Recent advances of podophyllotoxin/epipodophyllotoxin hybrids in anticancer activity, mode of action, and structure-activity relationship: An update (2010-2020)” (Eur J Med Chem, 2020).

Format in all cases: functional, cell-based
Experiment [1] has as its system KB. In words: Cytotoxicity against human Vincristine-resistant KB cells incubated for 72 hrs by SRB method.
Experiment [2] concerns KB. In words: Cytotoxicity against human KB cells incubated for 72 hrs by SRB method. On the technique in general: Sulforhodamine B stains cellular protein and so reports cell mass.
The next experiment has as its system NCI-H1993. In words: Antiproliferative activity against human NCI-H1993 cells incubated for 48 to 72 hrs by MTT assay. For orientation: Tetrazolium assays rely on reduction of a dye to a coloured formazan, in cell work by metabolically active cells.
In a further experiment the test system is MKN-45. In words: Antiproliferative activity against human MKN-45 cells incubated for 48 to 72 hrs by MTT assay.
Another experiment has as its system B16. In words: Antiproliferative activity against […] cells incubated for 48 to 72 hrs by MTT assay. The following applies: Mus musculus.
In another experiment the test system is HepG2. In words: Antiproliferative activity against human HepG2 cells incubated for 48 to 72 hrs by MTT assay.

As usually defined, the IC50 is the midpoint of a concentration-inhibition curve. High values mean lower potency, low ones higher potency. As for `COc1cc([C@@H]2c3cc4c(cc3[C@@H](SS[C@@H]3O[C@@H]5O[C@@H](c6cccs6)OC[C@H]5[C@H](O)[C@H]3O)[C@H]3COC(=O)[C@H]23)OCO4)cc(OC)c1O`, the concentration for half-maximal inhibition (IC50) with KB [1] and in the experiment on KB [2] was 1120 nM each time.

Turning to `CCSS[C@@H]1c2cc3c(cc2[C@@H](c2cc(OC)c(O)c(OC)c2)[C@H]2C(=O)OC[C@@H]21)OCO3`, the 50% inhibitory concentration (IC50) with KB [1] and with KB [2] was 1120 nM in each case.

`COc1cc([C@@H]2c3cc4c(cc3[C@@H](SSCC(=O)N3CCC(O)CC3)[C@H]3COC(=O)[C@H]23)OCO4)cc(OC)c1O`: the IC50 in the experiment on KB [1] and in the experiment with KB [2] was 1120 nM throughout.

For `CCc1ccc(OC(C)(C)c2cn([C@H]3c4cc5c(cc4[C@@H](c4cc(OC)c(OC)c(OC)c4)[C@H]4C(=O)OC[C@@H]43)OCO5)nn2)cc1`, the half-inhibitory concentration (IC50) with NCI-H1993, with MKN-45, in the experiment on B16 and in the experiment with HepG2 was 150 nM in each case.

In the case of `COc1cc([C@@H]2c3cc4c(cc3[C@@H](SSSCC(O)CO)[C@H]3COC(=O)[C@H]23)OCO4)cc(OC)c1O` (stereo not given in full), the half-maximal inhibitory concentration (IC50) in the experiment with KB [1] and in the experiment on KB [2] was 1120 nM throughout.

As for `CCC(C)(C)c1ccc(OCc2cn([C@H]3c4cc5c(cc4[C@@H](c4cc(OC)c(OC)c(OC)c4)[C@H]4C(=O)OC[C@@H]43)OCO5)nn2)cc1`, the half-maximal inhibitory concentration (IC50) with NCI-H1993, with MKN-45, in the experiment with B16 and in the experiment with HepG2 was 130 nM in each case.

`COc1cc([C@@H]2c3cc4c(cc3[C@@H](SSCCN3CCCC(O)C3)[C@H]3COC(=O)[C@H]23)OCO4)cc(OC)c1O` (stereo not given in full): the half-inhibitory concentration (IC50) in the experiment on KB [1] and in the experiment on KB [2] was 1120 nM throughout.

As to `COc1cc([C@@H]2c3cc4c(cc3[C@@H](SSCC(=O)N3CCCC(O)C3)[C@H]3COC(=O)[C@H]23)OCO4)cc(OC)c1O` (stereo not given in full), the half-inhibitory concentration (IC50) in the experiment on KB [1] and in the experiment on KB [2] was 1120 nM each time.

Consider `COc1cc([C@@H]2c3cc4c(cc3[C@H](n3cc(COc5ccc([N+](=O)[O-])cc5)nn3)[C@H]3COC(=O)[C@H]23)OCO4)cc(OC)c1OC`, for which the IC50 in the experiment on NCI-H1993, in the experiment with MKN-45, with B16 and in the experiment with HepG2 was 130 nM each time.

For the compound `COc1cc([C@@H]2c3cc4c(cc3[C@@H](SSCCCN3CCCCC3)[C@H]3COC(=O)[C@H]23)OCO4)cc(OC)c1O`, the IC50 in the experiment on KB [1] and in the experiment on KB [2] was 1120 nM each time.

As for `COC(=O)C(N)CSS[C@@H]1c2cc3c(cc2[C@@H](c2cc(OC)c(O)c(OC)c2)[C@H]2C(=O)OC[C@@H]21)OCO3` (stereo not given in full), the 50% inhibitory concentration (IC50) with KB [1] and with KB [2] was 1120 nM throughout.

Consider `COc1cc([C@@H]2c3cc4c(cc3[C@@H](SSc3cccs3)[C@H]3COC(=O)[C@H]23)OCO4)cc(OC)c1O`, for which the 50% inhibitory concentration (IC50) in the experiment on KB [1] and with KB [2] was 1120 nM in each case.

Turning to `COc1cc([C@@H]2c3cc4c(cc3[C@@H](SSCCN3CCNCC3)[C@H]3COC(=O)[C@H]23)OCO4)cc(OC)c1O`, the IC50 in the experiment on KB [1] and in the experiment with KB [2] was 1120 nM each time.

With `COc1cc([C@@H]2c3cc4c(cc3[C@@H](SSCCCN3CCNCC3)[C@H]3COC(=O)[C@H]23)OCO4)cc(OC)c1O`, the half-maximal inhibitory concentration (IC50) with KB [1] and with KB [2] was 1120 nM throughout.

For the compound `COc1cc([C@@H]2c3cc4c(cc3[C@@H](SSCCCN3CCCC3)[C@H]3COC(=O)[C@H]23)OCO4)cc(OC)c1O`, the IC50 with KB [1] and with KB [2] was 1120 nM in each case.

Consider `COc1cc([C@@H]2c3cc4c(cc3[C@@H](SSSCCO)[C@H]3COC(=O)[C@H]23)OCO4)cc(OC)c1O`, for which the IC50 in the experiment with KB [1] and in the experiment on KB [2] was 1120 nM in each case.

With `COc1ccccc1/C=C/C(=O)c1ccc(OCc2cn([C@H]3c4cc5c(cc4[C@@H](c4cc(OC)c(OC)c(OC)c4)[C@H]4C(=O)OC[C@@H]43)OCO5)nn2)c(OC)c1`, the IC50 with NCI-H1993, with MKN-45, in the experiment on B16 and with HepG2 was 130 nM in each case.

For `COc1cc([C@@H]2c3cc4c(cc3[C@H](n3cc(CNC(=O)c5ccc(Cl)cc5)nn3)[C@H]3COC(=O)[C@H]23)OCO4)cc(OC)c1OC`, the half-inhibitory concentration (IC50) with NCI-H1993, with MKN-45, in the experiment with B16 and with HepG2 was 130 nM in each case.

`COc1cc([C@@H]2c3cc4c(cc3[C@@H](SSCCCN(C(C)C)C(C)C)[C@H]3COC(=O)[C@H]23)OCO4)cc(OC)c1O`: the IC50 in the experiment on KB [1] and with KB [2] was 1120 nM each time.

For `COc1cc([C@@H]2c3cc4c(cc3[C@H](n3cc(COc5ccc6ccc(=O)oc6c5)nn3)[C@H]3COC(=O)[C@H]23)OCO4)cc(OC)c1OC`, the IC50 in the experiment on NCI-H1993, with MKN-45, with B16 and with HepG2 was 130 nM each time.

In the case of `COc1ccc(SCc2cn([C@H]3c4cc5c(cc4[C@@H](c4cc(OC)c(OC)c(OC)c4)[C@H]4C(=O)OC[C@@H]43)OCO5)nn2)cc1OC`, the half-maximal inhibitory concentration (IC50) in the experiment on NCI-H1993, in the experiment on MKN-45, in the experiment with B16 and in the experiment on HepG2 was 130 nM throughout.

Consider `COc1cc([C@@H]2c3cc4c(cc3[C@@H](SSSCC(=O)N3CCNCC3)[C@H]3COC(=O)[C@H]23)OCO4)cc(OC)c1O`, for which the IC50 in the experiment on KB [1] and with KB [2] was 1120 nM in each case.

`COc1cc([C@@H]2c3cc4c(cc3[C@@H](SS[C@@H]3O[C@@H]5O[C@@H](C)OC[C@H]5[C@H](O)[C@H]3O)[C@H]3COC(=O)[C@H]23)OCO4)cc(OC)c1O`: the IC50 in the experiment with KB [1] and in the experiment with KB [2] was 1120 nM each time.

Take `COc1cc([C@@H]2c3cc4c(cc3[C@@H](SSCCCN3CCCCC3CO)[C@H]3COC(=O)[C@H]23)OCO4)cc(OC)c1O` (stereo not given in full): the concentration for half-maximal inhibition (IC50) in the experiment with KB [1] and with KB [2] was 1120 nM each time.

As for `COc1cc([C@@H]2c3cc4c(cc3[C@@H](SSCCCN3CCN(C(C)=O)CC3)[C@H]3COC(=O)[C@H]23)OCO4)cc(OC)c1O`, the IC50 with KB [1] and in the experiment with KB [2] was 1120 nM in each case.

For `COc1cc([C@@H]2c3cc4c(cc3[C@@H](SSS[C@@H]3O[C@H](CO)[C@@H](O)[C@H](O)[C@H]3O)[C@H]3COC(=O)[C@H]23)OCO4)cc(OC)c1O`, the 50% inhibitory concentration (IC50) in the experiment with KB [1] and in the experiment on KB [2] was 1120 nM each time.

Take `COc1cc([C@@H]2c3cc4c(cc3[C@@H](SS[C@@H]3O[C@H](COC(C)=O)[C@H](OC(C)=O)[C@H](OC(C)=O)[C@H]3OC(C)=O)[C@H]3COC(=O)[C@H]23)OCO4)cc(OC)c1O`: the IC50 with KB [1] and with KB [2] was 1120 nM each time.

`COc1cc([C@@H]2c3cc4c(cc3[C@@H](SSc3ccccn3)[C@H]3COC(=O)[C@H]23)OCO4)cc(OC)c1O`: the concentration for half-maximal inhibition (IC50) with KB [1] and in the experiment on KB [2] was 1120 nM throughout.

With `COc1cc([C@@H]2c3cc4c(cc3[C@@H](SSSCCCN3CCOCC3)[C@H]3COC(=O)[C@H]23)OCO4)cc(OC)c1O`, the half-maximal inhibitory concentration (IC50) with KB [1] and with KB [2] was 1120 nM in each case.

As to `CCN(CC)CCCSS[C@@H]1c2cc3c(cc2[C@@H](c2cc(OC)c(O)c(OC)c2)[C@H]2C(=O)OC[C@@H]21)OCO3`, the concentration for half-maximal inhibition (IC50) in the experiment with KB [1] and in the experiment on KB [2] was 1120 nM in each case.

On to `COc1cc([C@@H]2c3cc4c(cc3[C@@H](SSCC(=O)N3CCC(=O)CC3)[C@H]3COC(=O)[C@H]23)OCO4)cc(OC)c1O`, for which the IC50 in the experiment on KB [1] and in the experiment with KB [2] was 1120 nM each time.

For the compound `COc1cc([C@@H]2c3cc4c(cc3[C@@H](SSCCN)[C@H]3COC(=O)[C@H]23)OCO4)cc(OC)c1O`, the 50% inhibitory concentration (IC50) in the experiment with KB [1] and in the experiment on KB [2] was 1120 nM throughout.

Regarding `COc1cc([C@@H]2c3cc4c(cc3[C@@H](SSc3cccnc3)[C@H]3COC(=O)[C@H]23)OCO4)cc(OC)c1O`, the IC50 in the experiment with KB [1] and with KB [2] was 1120 nM in each case.

As for `COc1cc([C@@H]2c3cc4c(cc3[C@@H](SSCCCN3CCN(C)CC3)[C@H]3COC(=O)[C@H]23)OCO4)cc(OC)c1O`, the half-inhibitory concentration (IC50) in the experiment with KB [1] and in the experiment on KB [2] was 1120 nM each time.

Take `COc1cc([C@@H]2c3cc4c(cc3[C@@H](SS[C@@H]3O[C@H](CO)[C@@H](O)[C@H](O)[C@H]3O)[C@H]3COC(=O)[C@H]23)OCO4)cc(OC)c1O`: the half-inhibitory concentration (IC50) with KB [1] and in the experiment with KB [2] was 1120 nM throughout.

As to `CCSSS[C@@H]1c2cc3c(cc2[C@@H](c2cc(OC)c(O)c(OC)c2)[C@H]2C(=O)OC[C@@H]21)OCO3`, the half-inhibitory concentration (IC50) in the experiment on KB [1] and in the experiment with KB [2] was 1120 nM in each case.

As to `COc1cc([C@@H]2c3cc4c(cc3[C@@H](SSCC(=O)N3CCOCC3)[C@H]3COC(=O)[C@H]23)OCO4)cc(OC)c1O`, the IC50 in the experiment with KB [1] and with KB [2] was 1120 nM each time.

For `COc1cc([C@@H]2c3cc4c(cc3[C@@H](SSCCN3CCOCC3)[C@H]3COC(=O)[C@H]23)OCO4)cc(OC)c1O`, the IC50 with KB [1] and in the experiment with KB [2] was 1120 nM in each case.

Regarding `COc1cc([C@@H]2c3cc4c(cc3[C@@H](SSCCCN3CCOCC3)[C@H]3COC(=O)[C@H]23)OCO4)cc(OC)c1O`, the IC50 in the experiment with KB [1] and with KB [2] was 1120 nM each time.

Consider `COc1cc([C@@H]2c3cc4c(cc3[C@@H](SSCCCN3CCC(O)CC3)[C@H]3COC(=O)[C@H]23)OCO4)cc(OC)c1O`, for which the half-maximal inhibitory concentration (IC50) in the experiment on KB [1] and in the experiment on KB [2] was 1120 nM each time.

On to `COc1cc([C@@H]2c3cc4c(cc3[C@@H](SSCC(=O)N3CCNCC3)[C@H]3COC(=O)[C@H]23)OCO4)cc(OC)c1O`, for which the IC50 with KB [1] and in the experiment on KB [2] was 1120 nM in each case.

With `COc1cc([C@@H]2c3cc4c(cc3[C@@H](SSCCO)[C@H]3COC(=O)[C@H]23)OCO4)cc(OC)c1O`, the IC50 with KB [1] and with KB [2] was 1120 nM in each case.

Turning to `COc1cc([C@@H]2c3cc4c(cc3[C@@H](SS[C@@H]3O[C@H](CO)[C@H](O)[C@H](O)[C@H]3O)[C@H]3COC(=O)[C@H]23)OCO4)cc(OC)c1O`, the half-maximal inhibitory concentration (IC50) with KB [1] is 9960 nM; with KB [2] it was 1120 nM.
